System: Mycobacterium tuberculosis
Test: Antimicrobial activity in INH-resistant Mycobacterium tuberculosis ATCC 35822 infected in human Primary macrophage cells assessed as reduction in intracellular growth of bacteria incubated for 4 days by CFU assay
Assay type: functional, organism-based
Settings: ATCC 35822, Primary macrophage, 96 h

C=CC[C@@]12C[C@H](CC=C(C)C)C(C)(C)[C@@](CC=C)(C(=O)C(C(C)=O)=C1[O-])C2=O.[Na+]
IC50: 15.9 µM
